This passage reports IC50, residual activity and inhibition results from ChEMBL document CHEMBL4507278 (2021).

Structures are written as SMILES.

As usually defined, the IC50 is the concentration at which inhibition is half-maximal. What is called residual activity is the signal under treatment as a percentage of the control signal. What is called inhibition is the drop in the measured response relative to a control, in per cent.

The target in assay [1] is C-C chemokine receptor type 1 (Homo sapiens, UniProt P32246). Briefly: Ca flux.
Assay [2] deals with Myosin light chain kinase (Homo sapiens) (UniProt Q32MK0). The settings on record: Compound concentration 1000.0 nM.
Assay [3] deals with 5-hydroxytryptamine receptor 6 (Homo sapiens) (UniProt P50406). The settings on record: Compound concentration 10.0 uM.
Assay [4] deals with T1, 5-hydroxytryptamine receptor 1A (Homo sapiens) (UniProt P08908).
T1 sequence (whole entry): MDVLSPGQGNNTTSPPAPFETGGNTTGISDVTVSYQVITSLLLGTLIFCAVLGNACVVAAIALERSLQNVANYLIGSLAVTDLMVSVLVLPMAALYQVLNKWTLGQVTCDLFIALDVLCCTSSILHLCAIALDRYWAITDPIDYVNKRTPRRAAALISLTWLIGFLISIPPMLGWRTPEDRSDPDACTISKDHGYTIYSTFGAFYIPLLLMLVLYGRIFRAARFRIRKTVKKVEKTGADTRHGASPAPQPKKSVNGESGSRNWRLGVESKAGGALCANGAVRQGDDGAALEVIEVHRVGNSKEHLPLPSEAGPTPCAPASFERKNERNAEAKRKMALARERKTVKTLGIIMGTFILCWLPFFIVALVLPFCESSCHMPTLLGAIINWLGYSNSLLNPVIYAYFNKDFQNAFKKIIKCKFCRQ
The assay can be described thus: 5HT1A/HU Eurofins-Panlabs selectivity data (BI). The settings on record: Compound concentration 10.0 uM.

Assay [5] has as its target Adenosine receptor A1 (Homo sapiens) (UniProt P30542). Briefly: A1/HU Eurofins-Panlabs selectivity data (BI). The settings on record: Compound concentration 10.0 uM.
Assay [6] has as its target Cannabinoid receptor 1 (Homo sapiens) (UniProt P21554). The assay can be described thus: CB1 Eurofins-Panlabs selectivity data (BI). The settings on record: Compound concentration 10.0 uM.
The target in assay [7] is T2, C-C chemokine receptor type 1 (Homo sapiens) (UniProt P32246).
T2 sequence (whole entry): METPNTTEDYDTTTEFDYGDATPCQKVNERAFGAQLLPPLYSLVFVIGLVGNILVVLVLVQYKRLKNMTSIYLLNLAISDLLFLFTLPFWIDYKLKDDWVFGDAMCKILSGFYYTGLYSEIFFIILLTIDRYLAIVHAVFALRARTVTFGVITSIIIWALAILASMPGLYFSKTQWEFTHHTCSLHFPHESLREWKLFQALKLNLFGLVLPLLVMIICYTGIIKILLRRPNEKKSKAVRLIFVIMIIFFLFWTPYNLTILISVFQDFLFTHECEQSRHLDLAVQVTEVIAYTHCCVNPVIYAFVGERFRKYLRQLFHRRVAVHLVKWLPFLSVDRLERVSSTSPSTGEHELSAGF
Briefly: CCR1 Eurofins-Panlabs selectivity data (BI).

The target in assay [8] is Cysteinyl leukotriene receptor 1 (Homo sapiens) (UniProt Q9Y271). Briefly: CYSLT1_HS Eurofins-Panlabs selectivity data (BI). The settings on record: Compound concentration 10.0 uM.
Chain of Cysteinyl leukotriene receptor 1 (Homo sapiens) (Q9Y271 whole entry): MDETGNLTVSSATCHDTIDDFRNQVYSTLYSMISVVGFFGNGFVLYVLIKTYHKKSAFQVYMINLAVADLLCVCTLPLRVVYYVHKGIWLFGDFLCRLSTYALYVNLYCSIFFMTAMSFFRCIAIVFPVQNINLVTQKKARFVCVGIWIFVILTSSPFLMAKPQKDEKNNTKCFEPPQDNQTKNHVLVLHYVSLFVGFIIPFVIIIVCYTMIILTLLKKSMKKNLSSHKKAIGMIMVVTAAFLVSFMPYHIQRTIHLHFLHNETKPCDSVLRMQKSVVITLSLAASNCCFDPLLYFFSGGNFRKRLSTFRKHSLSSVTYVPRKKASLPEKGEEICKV
In assay [9] the target is D(3) dopamine receptor (Homo sapiens) (UniProt P35462). Briefly: D3/HU Eurofins-Panlabs selectivity data (BI). As to conditions: Compound concentration 10.0 uM; call rule not given here.
Assay [10] has as its target T3, D(4) dopamine receptor (Homo sapiens) (UniProt P21917).
T3 sequence (whole entry): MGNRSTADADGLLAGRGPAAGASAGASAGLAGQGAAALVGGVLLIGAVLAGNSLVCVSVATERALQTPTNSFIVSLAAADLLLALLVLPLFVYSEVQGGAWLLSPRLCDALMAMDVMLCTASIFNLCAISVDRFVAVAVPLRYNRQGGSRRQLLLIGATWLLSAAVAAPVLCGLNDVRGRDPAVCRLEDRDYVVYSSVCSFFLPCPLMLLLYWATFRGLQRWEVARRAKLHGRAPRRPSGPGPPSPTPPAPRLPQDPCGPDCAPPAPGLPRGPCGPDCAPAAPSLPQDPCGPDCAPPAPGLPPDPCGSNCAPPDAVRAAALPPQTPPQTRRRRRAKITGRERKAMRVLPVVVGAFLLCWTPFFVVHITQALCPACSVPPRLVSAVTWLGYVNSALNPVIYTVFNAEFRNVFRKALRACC
Briefly: D4.2/H Eurofins-Panlabs selectivity data (BI). As to conditions: Compound concentration 10.0 uM.

In assay [11] the target is Gamma-aminobutyric acid receptor subunit alpha-1 (Rattus norvegicus) (UniProt P62813). Briefly: GABAA MUSCIMOL CENT Eurofins-Panlabs selectivity data (BI). As to conditions: Compound concentration 10.0 uM.
Chain of Gamma-aminobutyric acid receptor subunit alpha-1 (Rattus norvegicus) (P62813 whole entry): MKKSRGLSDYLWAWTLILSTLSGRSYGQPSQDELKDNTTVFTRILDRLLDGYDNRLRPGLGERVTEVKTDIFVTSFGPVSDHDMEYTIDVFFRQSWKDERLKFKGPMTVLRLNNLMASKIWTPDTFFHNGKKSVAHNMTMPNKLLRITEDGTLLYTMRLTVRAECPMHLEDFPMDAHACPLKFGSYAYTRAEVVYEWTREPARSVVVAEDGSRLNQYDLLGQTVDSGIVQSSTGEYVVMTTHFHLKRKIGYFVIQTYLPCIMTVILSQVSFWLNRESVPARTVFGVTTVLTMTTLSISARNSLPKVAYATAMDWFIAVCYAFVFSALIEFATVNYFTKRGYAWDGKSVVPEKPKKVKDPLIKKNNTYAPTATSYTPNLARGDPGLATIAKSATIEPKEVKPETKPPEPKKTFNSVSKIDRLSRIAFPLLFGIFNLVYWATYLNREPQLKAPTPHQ
The target of assay [12] is Gamma-aminobutyric acid type B receptor subunit 1 (Homo sapiens) (UniProt Q9UBS5). Briefly: GABA_B1A Eurofins-Panlabs selectivity data (BI). The settings on record: Compound concentration 10.0 uM.
Chain of Gamma-aminobutyric acid type B receptor subunit 1 (Homo sapiens) (Q9UBS5 whole entry): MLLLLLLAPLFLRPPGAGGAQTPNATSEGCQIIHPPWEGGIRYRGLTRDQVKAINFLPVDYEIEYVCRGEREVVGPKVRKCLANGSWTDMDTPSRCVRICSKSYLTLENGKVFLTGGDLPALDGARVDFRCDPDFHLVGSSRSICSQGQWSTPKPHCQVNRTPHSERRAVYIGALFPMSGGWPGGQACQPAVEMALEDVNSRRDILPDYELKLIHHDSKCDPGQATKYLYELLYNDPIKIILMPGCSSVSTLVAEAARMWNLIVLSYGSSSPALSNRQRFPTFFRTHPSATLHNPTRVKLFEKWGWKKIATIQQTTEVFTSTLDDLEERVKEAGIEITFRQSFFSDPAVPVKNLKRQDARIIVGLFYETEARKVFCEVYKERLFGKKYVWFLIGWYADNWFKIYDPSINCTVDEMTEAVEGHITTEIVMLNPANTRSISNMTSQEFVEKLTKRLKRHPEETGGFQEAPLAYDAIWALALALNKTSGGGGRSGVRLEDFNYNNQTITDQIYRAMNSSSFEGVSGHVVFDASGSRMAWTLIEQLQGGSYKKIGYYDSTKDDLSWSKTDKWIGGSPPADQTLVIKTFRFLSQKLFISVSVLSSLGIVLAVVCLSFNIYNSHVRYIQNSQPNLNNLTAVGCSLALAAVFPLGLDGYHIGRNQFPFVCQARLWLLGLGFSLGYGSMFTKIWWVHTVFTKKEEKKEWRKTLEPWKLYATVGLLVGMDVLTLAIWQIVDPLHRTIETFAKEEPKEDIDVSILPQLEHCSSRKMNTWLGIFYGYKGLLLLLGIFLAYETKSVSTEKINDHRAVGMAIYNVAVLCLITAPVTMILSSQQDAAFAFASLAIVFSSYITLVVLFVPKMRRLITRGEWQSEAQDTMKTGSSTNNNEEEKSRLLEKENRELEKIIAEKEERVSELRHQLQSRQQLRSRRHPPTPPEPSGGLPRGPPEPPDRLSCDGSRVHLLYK
Assay [13] addresses Glucocorticoid receptor (Homo sapiens) (UniProt P04150). Briefly: GLUCOCORTICO Eurofins-Panlabs selectivity data (BI). As to conditions: Compound concentration 10.0 uM.
Assay [14] has as its target ATP-sensitive inward rectifier potassium channel 1 isoform X1 (Mesocricetus auratus) (UniProt A0A1U8CU73). Briefly: K+/KATP/HA Eurofins-Panlabs selectivity data (BI). The settings on record: Compound concentration 10.0 uM.
Assay [15] deals with Muscarinic acetylcholine receptor M2 (Homo sapiens) (UniProt P08172). Briefly: M2/HU Eurofins-Panlabs selectivity data (BI). The settings on record: Compound concentration 10.0 uM.
Chain of Muscarinic acetylcholine receptor M2 (Homo sapiens) (P08172 whole entry): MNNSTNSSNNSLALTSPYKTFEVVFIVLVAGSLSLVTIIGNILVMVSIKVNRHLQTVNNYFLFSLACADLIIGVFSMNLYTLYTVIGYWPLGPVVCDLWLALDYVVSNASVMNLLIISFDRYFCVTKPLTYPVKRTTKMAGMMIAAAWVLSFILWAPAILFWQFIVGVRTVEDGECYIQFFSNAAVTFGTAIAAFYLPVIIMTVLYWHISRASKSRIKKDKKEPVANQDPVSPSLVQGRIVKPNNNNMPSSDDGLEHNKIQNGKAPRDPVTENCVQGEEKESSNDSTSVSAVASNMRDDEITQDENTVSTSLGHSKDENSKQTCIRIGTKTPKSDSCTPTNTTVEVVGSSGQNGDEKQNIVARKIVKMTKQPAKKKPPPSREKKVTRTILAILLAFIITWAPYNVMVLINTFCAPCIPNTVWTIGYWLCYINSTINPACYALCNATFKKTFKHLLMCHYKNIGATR
Assay [16] concerns the target Melatonin receptor type 1A (Homo sapiens) (UniProt P48039). The assay can be described thus: MT1/H Eurofins-Panlabs selectivity data (BI). As to conditions: Compound concentration 10.0 uM.
The target in assay [17] is Mu-type opioid receptor (Homo sapiens) (UniProt P35372). The assay can be described thus: MU/HU Eurofins-Panlabs selectivity data (BI). The settings on record: Compound concentration 10.0 uM.
Chain of Mu-type opioid receptor (Homo sapiens) (P35372 whole entry): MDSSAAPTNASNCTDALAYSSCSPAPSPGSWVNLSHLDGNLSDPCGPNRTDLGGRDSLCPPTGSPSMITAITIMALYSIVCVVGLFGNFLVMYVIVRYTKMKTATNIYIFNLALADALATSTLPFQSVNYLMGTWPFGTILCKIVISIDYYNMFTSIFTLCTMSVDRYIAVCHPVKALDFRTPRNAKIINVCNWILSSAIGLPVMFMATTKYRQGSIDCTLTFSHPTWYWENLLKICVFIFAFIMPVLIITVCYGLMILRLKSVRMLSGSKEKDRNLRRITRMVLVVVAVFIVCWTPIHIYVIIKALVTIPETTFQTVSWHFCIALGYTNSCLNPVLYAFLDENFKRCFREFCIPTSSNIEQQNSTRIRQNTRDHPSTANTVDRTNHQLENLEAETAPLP
The target in assay [18] is Nicotinic acetylcholine receptor alpha-1/beta-1 (Homo sapiens) (UniProt P02708+P11230). Briefly: NACH_BS_N/H Eurofins-Panlabs selectivity data (BI). The assay is classed as protein-complex assay. As to conditions: Compound concentration 10.0 uM.
Assay [19] deals with Protein kinase C alpha type (Mus musculus) (UniProt P20444). Briefly: PHORBOLE/M Eurofins-Panlabs selectivity data (BI). As to conditions: Compound concentration 10.0 uM.
The target in assay [20] is 3',5'-cyclic-AMP phosphodiesterase 4A (Rattus norvegicus) (UniProt P54748). The assay can be described thus: ROLIPRAM/R Eurofins-Panlabs selectivity data (BI). As to conditions: Compound concentration 10.0 uM.
The target in assay [21] is Alpha-1A adrenergic receptor (Rattus norvegicus) (UniProt P43140). The assay can be described thus: ALPHA1A/R Eurofins-Panlabs selectivity data (BI). The settings on record: Compound concentration 10.0 uM.
The target in assay [22] is Alpha-1B adrenergic receptor (Rattus norvegicus) (UniProt P15823). The assay can be described thus: ALPHA1B/R Eurofins-Panlabs selectivity data (BI). As to conditions: Compound concentration 10.0 uM.

Chain of Cannabinoid receptor 1 (Homo sapiens) (P21554 whole entry): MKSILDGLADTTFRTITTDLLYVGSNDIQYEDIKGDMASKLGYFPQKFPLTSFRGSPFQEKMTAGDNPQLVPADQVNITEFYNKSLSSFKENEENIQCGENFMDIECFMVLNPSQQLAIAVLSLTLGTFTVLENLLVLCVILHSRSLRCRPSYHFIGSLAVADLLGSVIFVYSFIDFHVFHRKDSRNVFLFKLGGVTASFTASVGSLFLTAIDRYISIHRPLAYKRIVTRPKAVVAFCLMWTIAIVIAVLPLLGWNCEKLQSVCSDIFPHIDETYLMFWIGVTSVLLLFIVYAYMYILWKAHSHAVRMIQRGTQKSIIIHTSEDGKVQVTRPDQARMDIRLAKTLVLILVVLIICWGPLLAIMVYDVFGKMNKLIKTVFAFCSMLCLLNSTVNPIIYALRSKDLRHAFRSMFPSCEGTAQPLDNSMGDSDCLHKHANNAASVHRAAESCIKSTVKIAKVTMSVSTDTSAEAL
Chain of Glucocorticoid receptor (Homo sapiens) (P04150 whole entry, canonical isoform): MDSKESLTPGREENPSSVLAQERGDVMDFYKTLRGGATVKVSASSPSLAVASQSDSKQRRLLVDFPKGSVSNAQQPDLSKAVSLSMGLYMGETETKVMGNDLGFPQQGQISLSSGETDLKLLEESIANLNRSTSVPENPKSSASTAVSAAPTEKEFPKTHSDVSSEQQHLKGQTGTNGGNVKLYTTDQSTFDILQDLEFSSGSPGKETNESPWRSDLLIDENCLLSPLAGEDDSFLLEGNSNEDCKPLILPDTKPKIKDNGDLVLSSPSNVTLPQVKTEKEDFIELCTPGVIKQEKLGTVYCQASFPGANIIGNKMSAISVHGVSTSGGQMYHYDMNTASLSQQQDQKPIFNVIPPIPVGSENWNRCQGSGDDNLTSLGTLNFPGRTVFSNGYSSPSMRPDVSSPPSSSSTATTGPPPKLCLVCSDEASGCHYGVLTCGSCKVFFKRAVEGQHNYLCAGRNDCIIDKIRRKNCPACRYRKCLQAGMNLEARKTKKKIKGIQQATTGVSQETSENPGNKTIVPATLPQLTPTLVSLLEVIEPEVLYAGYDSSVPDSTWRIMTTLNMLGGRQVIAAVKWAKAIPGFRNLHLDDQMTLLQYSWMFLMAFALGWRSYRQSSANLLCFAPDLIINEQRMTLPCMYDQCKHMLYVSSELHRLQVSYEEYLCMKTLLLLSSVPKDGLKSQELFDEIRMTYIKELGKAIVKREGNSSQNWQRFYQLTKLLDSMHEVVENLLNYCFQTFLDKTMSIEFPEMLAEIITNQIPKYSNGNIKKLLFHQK
Chain of ATP-sensitive inward rectifier potassium channel 1 isoform X1 (Mesocricetus auratus) (A0A1U8CU73 as listed by the source): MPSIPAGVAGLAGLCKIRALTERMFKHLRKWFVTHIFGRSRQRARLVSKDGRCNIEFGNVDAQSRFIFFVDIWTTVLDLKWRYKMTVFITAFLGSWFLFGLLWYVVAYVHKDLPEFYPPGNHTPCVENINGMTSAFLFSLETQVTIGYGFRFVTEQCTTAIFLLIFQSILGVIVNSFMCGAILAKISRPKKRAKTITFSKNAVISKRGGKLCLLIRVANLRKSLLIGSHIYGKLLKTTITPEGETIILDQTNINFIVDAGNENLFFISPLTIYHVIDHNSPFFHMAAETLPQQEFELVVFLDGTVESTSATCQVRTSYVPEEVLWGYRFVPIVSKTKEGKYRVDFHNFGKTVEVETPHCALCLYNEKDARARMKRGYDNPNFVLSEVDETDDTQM

As for `CS(=O)(=O)NCC[C@H](NC(=O)c1cncc2c1cnn2-c1ccc(F)cc1)c1ccnc(S(C)(=O)=O)c1` [BI 9307], in assay [1], the IC50 was > 3000 nM (not active). Besides, the residual activity in assay [2] is 100%. Further, the inhibition in assay [3] is -4.31%.
For `CS(=O)(=O)c1cc(C2(NC(=O)c3cncc4c3cnn4-c3ccc(F)cc3)CC2)ccn1` [BI 639667], the residual activity in assay [4] was 89%; in assay [5], 82%; in assay [6], 72%; in assay [7] (Compound concentration 0.03 uM) it was 72%; in assay [7] (Compound concentration 0.1 uM), 52%; in [7] (Compound concentration 0.3 uM) it was 33%. The residual activity in assay [7] (Compound concentration 1.0 uM) is 17%; in assay [7] (Compound concentration 3.0 uM), 7.5%; in assay [7] (Compound concentration 10.0 uM), 3%; in assay [8], 87%; in [9] it was 105%; in assay [10], 94%. Also, the residual activity was 98% in [11]; 90% in assay [12]; 96% in assay [13]; 100% in [14]; 99% in assay [15]; 79% in assay [16]. For the same compound, the residual activity in assay [17] was 86%; in [18], 100%; in assay [19], 93%; in [20], 81%; in assay [21], 88%; in assay [22], 93%.
